The subject of one assay is CbcWV with BetXDC3000. In kind it is cell-based, Pseudomonas syringae pv. tomato. As to conditions: MKH13; pNcbcWV, pT-D3758; SBP BetXDC3000; substrate 10 μM; single replication.
The test system of another assay is CbcXWV from DC3000. In kind it is cell-based, Pseudomonas syringae pv. tomato. The conditions noted are these: Acella, pET-cbcDC3000; 1 mM IPTG; substrate 1 mM; mean (SE), n = 10.
Assay [1] concerns the target T1, CbcX with CbcWV (Pseudomonas aeruginosa, UniProt Q9HTI6). Briefly: Competitive uptake, MKH13 expressing cbcXWV. In kind it is cell-based. As to conditions: MKH13, pNcbcXWV, SBP CbcX, competitor 1 mM.
The subject of the next assay is CbcX and CaiX with CbcWV. In kind it is cell-based, Pseudomonas aeruginosa. The conditions noted are these: MKH13, pNcbcXWV, pT-PA5388, SBPs CbcX/CaiX, competitor 1 mM.
For assay [2], the target named is T1, CbcX with CbcWV.
The subject of another assay is CbcWV with CaiXB728a. In kind it is cell-based, Pseudomonas syringae pv. syringae. As to conditions: MKH13; pNcbcWV, pT-B2916; SBP CaiXB728a; substrate 10 μM; single replication.
In assay [3] the test system is P. syringae pv. tomato DC3000. In kind it is cell-based, Pseudomonas syringae pv. tomato. As to conditions: for uptake rate: DC3000 grown without choline and betaine as inducers, substrate 10 μM.
Assay [4] addresses T2, ChoXWV (Sinorhizobium meliloti, UniProt Q92N37).
T2 sequence (Q92N37 28-318): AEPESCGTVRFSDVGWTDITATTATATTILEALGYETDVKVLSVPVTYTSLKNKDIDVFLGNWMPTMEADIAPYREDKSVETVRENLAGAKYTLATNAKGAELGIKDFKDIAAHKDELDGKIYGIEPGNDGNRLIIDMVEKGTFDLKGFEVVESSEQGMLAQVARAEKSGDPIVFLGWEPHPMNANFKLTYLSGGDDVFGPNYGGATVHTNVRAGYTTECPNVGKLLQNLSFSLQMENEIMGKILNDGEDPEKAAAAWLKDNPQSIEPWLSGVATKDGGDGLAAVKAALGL
T2 sequence (Q92N36 1-281 partner): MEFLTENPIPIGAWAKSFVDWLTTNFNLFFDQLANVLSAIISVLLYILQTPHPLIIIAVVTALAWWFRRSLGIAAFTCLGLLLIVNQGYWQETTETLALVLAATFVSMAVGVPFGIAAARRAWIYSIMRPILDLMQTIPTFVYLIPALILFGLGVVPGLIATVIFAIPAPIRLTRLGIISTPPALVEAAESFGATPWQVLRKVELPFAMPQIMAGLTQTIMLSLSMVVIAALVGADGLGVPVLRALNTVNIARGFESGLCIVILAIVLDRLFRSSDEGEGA
T2 sequence (Q92N35 1-349 partner): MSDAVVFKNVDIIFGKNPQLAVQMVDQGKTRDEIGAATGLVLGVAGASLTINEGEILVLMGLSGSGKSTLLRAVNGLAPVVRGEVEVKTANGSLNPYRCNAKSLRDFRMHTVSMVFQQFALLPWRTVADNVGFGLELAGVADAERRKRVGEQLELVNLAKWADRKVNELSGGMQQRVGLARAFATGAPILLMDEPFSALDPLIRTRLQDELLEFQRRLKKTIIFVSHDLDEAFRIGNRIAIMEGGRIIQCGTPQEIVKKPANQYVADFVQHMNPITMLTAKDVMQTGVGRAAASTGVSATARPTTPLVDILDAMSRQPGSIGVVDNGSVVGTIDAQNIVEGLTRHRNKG
Briefly: Competitive uptake, MKH13 expressing choXWV. In kind it is cell-based. The conditions noted are these: pNchoXWV, SBP ChoX, [^14C]choline 10 μM, competitor 1 mM.

Assay [5] relates to P. syringae BT-derived mutants. In kind it is cell-based, Pseudomonas syringae pv. syringae. As to conditions: pN.
Assay [6] deals with E. coli strains MKH13 and Acella. Briefly: Total uptake by E. coli strains carrying empty vector. In kind it is cell-based, Escherichia coli.
Assay [7] concerns the target T2, ChoXWV. Briefly: Uptake kinetics, MKH13. As to conditions: MKH13, pNchoXWV; SBP ChoX; mean (SE), n = 4.
Setting [8] is: host BT2916Ko, substrate 10 μM, single replication.
[9] abbreviates: Acella, pET15b, 1 mM IPTG, substrate 1 mM, single colony.
Where [10] appears, read: MKH13, pME6041, radiolabelled substrate 1 mM, mean (SE), n = 10.

Several values for one entry are separate records, joined by “and”; a condition that tells them apart may be missing. Identical values can stand only once. Like-named read-outs stand apart in the source and are kept apart here.

Regarding `C[N+](C)(C)CC(=O)O` [Betaine, glycine betaine], the Total uptake was 6.1 nmol (mg protein)^−1 in the assay with CbcWV with BetXDC3000; 17.0 (1.8) nmol (mg protein)^−1 with CbcXWV from DC3000; 0 nmol (mg protein)^−1 in the assay with CbcWV with CaiXB728a; 0.0 nmol (mg protein)^−1 in [5] (host BT0028Ko, substrate 10 μM); 0.0 nmol (mg protein)^−1 in assay [5] (setting [8]); 0.0 nmol (mg protein)^−1 in [5] (host BT3758Ko, substrate 10 μM). The figures for the Total uptake in assay [6] (setting [9]) and in assay [6] (setting [10]) were 8.2 nmol (mg protein)^−1 and 0.5 (0.5) nmol (mg protein)^−1, respectively. Besides, the “% inhibition of uptake of substrate by unlabelled competitor” value (from here on “% inhibition of uptake of substrate”) at CbcX with CbcWV [1] ([^14C]betaine 10 μM) is given as 87%; on CbcX with CbcWV [1] ([^14C]choline 10 μM) it was “not inhibited”; at CbcX with CbcWV [1] ([^14C]choline 10 μM, listed as Bet), 2%; in the assay on CbcX and CaiX with CbcWV ([^14C]betaine 10 μM), 88%; with CbcX and CaiX with CbcWV ([^14C]choline 10 μM) it was −1%; at ChoXWV [4], 3%. In addition, the “fold lower affinity of CbcX for betaine than choline” value at CbcX with CbcWV [2] was “approximately 10 fold”. Also, the “maximal rate of uptake (Vmax)” value at CbcX with CbcWV [2] (MKH13, pNcbcXWV, SBP CbcX, mean (SE), n = 4) is on record as 11.6 (0.6) nmol min^−1 (mg protein)^−1; at CbcX with CbcWV [2] (MKH13, pNcbcXWV, SBP CbcX, mean (SE), n = 4, listed as betaine), 11.6 nmol min^−1 (mg protein)^−1. The “increase of initial uptake rate after growth with inducer” value in [3] (DC3000 grown with 10 mM choline or betaine as inducers) is given as “three- to fourfold”. Moreover, the uptake rate in [3] is listed as 0.6 nmol min^−1 (mg protein)^−1.

Take `C[N+](C)(C)C[C@H](O)CC(=O)[O-]` [Carnitine, L-carnitine]: the Total uptake in the assay with CbcWV with BetXDC3000 is reported as 0 nmol (mg protein)^−1; in the assay on CbcXWV from DC3000, 0.59 (0.82) nmol (mg protein)^−1; with CbcWV with CaiXB728a it was 3.7 nmol (mg protein)^−1; in assay [5] (host BT0028Ko, substrate 10 μM) it was 0.0 nmol (mg protein)^−1; in [5] (setting [8]), 0.1 nmol (mg protein)^−1; in [5] (host BT3758Ko, substrate 10 μM), 0.0 nmol (mg protein)^−1. Moreover, the figures for the Total uptake in assay [6] (setting [9]) and in assay [6] (setting [10]) were 0 nmol (mg protein)^−1 and 0.5 (0.3) nmol (mg protein)^−1, respectively. Besides, the “% inhibition of uptake of substrate” value at CbcX with CbcWV [1] ([^14C]betaine 10 μM) was 3%; at CbcX with CbcWV [1] ([^14C]choline 10 μM) it was 6%; in the assay with CbcX and CaiX with CbcWV ([^14C]betaine 10 μM), 10%; in the assay on CbcX and CaiX with CbcWV ([^14C]choline 10 μM), −2%; at ChoXWV [4], 41%.

For the compound `C[N+](C)(C)CCO` [Choline, choline], the Total uptake in the assay with CbcWV with BetXDC3000 is 0 nmol (mg protein)^−1; in the assay on CbcXWV from DC3000, 15.0 (2.4) nmol (mg protein)^−1; in the assay with CbcWV with CaiXB728a it was 0 nmol (mg protein)^−1; in assay [5] (host BT0028Ko, substrate 10 μM), 0.0 nmol (mg protein)^−1; in [5] (host BT0028Ko, substrate 1 mM), 0 nmol (mg protein)^−1; in assay [5] (setting [8]), 0.0 nmol (mg protein)^−1. For the same compound, the Total uptake in [5] (host BT2916Ko, substrate 1 mM, single replication) was 0 nmol (mg protein)^−1; in assay [5] (host BT3758Ko, substrate 10 μM), 0.0 nmol (mg protein)^−1; in assay [5] (host BT3758Ko, substrate 1 mM), 0 nmol (mg protein)^−1; in [6] (setting [9]), 0 nmol (mg protein)^−1; in [6] (setting [10]), 0.2 (0.1) nmol (mg protein)^−1. Moreover, the “maximal rate of uptake (Vmax)” value on ChoXWV [7] was 1.2 (0.05) nmol min^−1 (mg protein)^−1; on CbcX with CbcWV [2] it was 34.6 nmol min^−1 (mg protein)^−1 and 34.6 (2.2) nmol min^−1 (mg protein)^−1. Further, the “% inhibition of uptake of substrate” value on CbcX with CbcWV [1] ([^14C]betaine 10 μM) is on record as 99%; at CbcX with CbcWV [1] ([^14C]choline 10 μM), 92%; with CbcX and CaiX with CbcWV ([^14C]betaine 10 μM), 99%; in the assay on CbcX and CaiX with CbcWV ([^14C]choline 10 μM), 96%; on ChoXWV [4], 98%. Also, the “increase of initial uptake rate after growth with inducer” value in assay [3] was “three- to fourfold”. Also, the uptake rate in assay [3] is reported as 1.8 nmol min^−1 (mg protein)^−1.

The values above are taken from article PMC5503199 (Molecular microbiology, 2009).
